Measurements published in patent US10905757B2, “Cross-reactive T cell epitopes of HIV, SIV, and FIV for vaccines in humans and cats” (priority 2012, dated 2021).
“Also recorded” adds a separate entry of the source. Marks after values point to notes of the source that are not given here. Ends that are not written are not given here.

Assays:
Format in all cases: cell-based, human
[1] = tested on: PBMC from HIV+ subjects; assay: IFNγ ELISpot, PBMC from HIV+ subjects; details: for IFNγ (positive/total): positive responses over total tested, F3 responders (H3 responders for H3-3)
Procedure: 1.0×10^5-2.0×10^5 PBMCs were stimulated with peptides (15 μg peptide/well) in ELISpot plates for 18 hours in AIMS V medium (at 10% normal human serum). The spots were counted with an ELISpot reader and adjusted to spot forming units (SFU) per 10^6 cells.
Positive reactivity was defined at ≥70 SFU/10^6 cells after subtracting the background derived from non-specific peptide control or media control, and the average of 3 HIV-1 negative controls (<30 SFU/10^6 cells).
ELISpot assays. Enzyme-linked immunosorbent spot assays (ELISpot) for IFNγ (R&D Systems, Minneapolis, Minn.) were performed with AIM V medium containing 5% heat-inactivated (56° C., 30 min) human serum as previously described (Abbott et al. (2012)). The PBMC from HIV+ subjects were stimulated with either peptide pool (4-5 consecutive peptides per pool at 5 μg per peptide) or individual peptide (15 μg/well). The peptides were 11-16 aa in length with 8-10 aa overlap. The results were analyzed with an ELISpot reader (MVS Pacific LLC, Minneapolis, Minn.) and adjusted to spot forming units (SFU) per 10^6 cells, after subtraction of the average medium control for each subject. The PBMC from HIV+ subjects were stimulated with T-cell mitogen, phytohemaglutinin A (PHA, 5 μg/mL), as positive control. At a positive threshold of 70 SFU, HIV− subjects had no substantial IFNγ responses (>50 SFU) to HIV and FIV peptide pools.
ELISpot assays. Human enzyme-linked immunosorbent spot assays (ELISpot) (R&D Systems, Cat #XEL285) which measure IFNγ production were performed (Abbott et al. 2011). The positive threshold for human IFNγ responses was >50 spot forming units (SFU)/10^6 cells. The final value for each subject was derived after subtracting the result of each HIV^+ subject with the media control followed by subtraction with the average response of the HIV^− subjects which was rarely more than 10 SFU.

[2] = tested on: CD3+CD8+ T cells from HIV+ subjects; assay: CFSE-proliferation, CD3+CD8+ T cells from HIV+ subjects; details: for CD8^+ T Proliferation (positive/total): positive responses over total tested, F3 responders (H3 responders for H3-3)
Procedure: (§1) 2×10^5-5×10^5 CFSE labeled PBMCs were incubated with 15-20 μg of peptides in 600 μL of RPMI media with 10% FBS for 5 days at 37° C. (5% CO2). After harvesting, they were labeled with allophycocyanin (APC), APC-H7, and Pacific Blue labeled monoclonal antibodies (MAb) to human CD3, CD4, and CD8, respectively and analyzed for T-cell proliferation by flow cytometry using BD LSRII (BD Biosciences). The proliferating CD4^+ or CD8^+ T cell populations were defined from the CD3^+ cell population as either CD3^+CD8^+ or CD3^+CD4^+T cells (mutually exclusive) with low CFSE (CFSE^low) staining.
(§2) Flow cytometry (FACS) for carboxyfluoresein diacetate succinimide ester (CFSE)-proliferation and intracellular cytotoxin staining (ICS). The CFSE-proliferation analysis was performed on PBMC according to the manufacturer's protocol (Invitrogen, Carlsbad, Calif.) and processed as previously described (Lichterfeld et al. (2004)). Modifications consisted of using 2.0-5.0×10^5 CFSE-labeled cells stimulated for 5 days (37° C., 5% CO^2) with 30 μg/well of total peptides in a pool (15 μg/well for individual peptide, Table 10) or 5 μg/mL PHA in AIM V medium containing 25 μg/mL of gentamycin and 10% heat-inactivated human serum. Subsequently these cells were harvested and labeled with the LIVE/DEAD fixable yellow dye (Invitrogen) and then treated 5 min with anti-CD16/CD32 antibody (Biolegend, San Diego, Calif.) for blocking non-specific binding before phenotype-specific antibodies. The following antibodies were used for the CFSE-proliferation analysis: anti-CD4 APC, anti-CD3 APC-H7, and anti-CD8 Pacific Blue (BD Biosciences, San Jose, Calif.).
(§3) In both analyses, 1.0-2.0×10^4 cells were fixed in phosphate-buffered saline (PBS) containing 2% paraformaldehyde and analyzed on BD LSRII using […] Software (BD Biosciences), with a positive threshold of 3% CFSE^low for CFSE-proliferation and 1% T cells expressing cytotoxin for ICS. The final value for each subject was derived after subtraction of the subject's medium control and the average value of peptide-stimulated cells from uninfected control subjects.
(§4) Flow cytometry (FACS) for measuring CFSE-proliferation and intracellular cytokine staining (ICS). Carboxyfluorescein diacetate succinimide ester (CFSE)-proliferation analysis was performed according to the manufacturer's protocol (Invitrogen) and processed as previously described (Lichterfeld et al. 2004) using the following modification: 2.5-5.0×10^5 CFSE-labeled PBMC stimulated for 4-5 days (37° C., 5% CO2) with 15-30 μg of peptides in culture media (AIM V medium, 25 μg/mL gentamycin, and 10% heat-inactivated fetal bovine serum). The ICS analysis was performed as previously described (Horton et al. 2007; Pattacini et al. 2012).
(§5) The antibodies used for the proliferation analysis consisted of anti-CD4 allophycocyanin (APC) anti-CD3 APC-H7, and anti-CD8 Pacific Blue, and those for ICS were anti-CD3 APC-H7, anti-CD4 BD Horizon V450, anti-CD8 FITC, anti-granzyme B (GrzB) Alexa 700, anti-granzyme A (GrzA) PE (BD Biosciences, Cat #555349, 560176, 558207, 560345, 555366, 560213, 558904), and anti-perforin PerCP (Abcam, Cat #ab86319). Both analyses were performed with BD LSRII and […]™ Software (BD Biosciences), using a positive threshold of >1% CFSE^low for CFSE-proliferation except for ICS studies with threshold of >0.1% T cells expressing cytotoxin. The final value for each subject was derived after subtracting the result of each HIV^+ subject with the media control followed by subtraction with the average response of the media-control subtracted HIV^− subjects.

[3] = tested on: CD8+ T cells from HIV+ subjects; assay: Intracellular cytotoxin staining (ICS: perforin, GrzA, GrzB, CD107a), CD8+ T cells from HIV+ subjects; set-up: key to CD8^+ T-cell cytotoxins (8C): positive (+); negative (−) response; inhibitory (↓); not done (n); details: for CD8^+ T-cell cytotoxins (8C): HIV^+ subjects compared to HIV^− control group
Procedure: (§6) Briefly, 1×10^6PBMCs (freshly isolated) are stimulated with 20 μg of peptides for 6 hours in a total volume of 200 μL in a 96-well plate in presence of Golgi transport inhibitor (37° C., 5% CO2). The cells are processed as previously described (Horton et al. (2007)). Cells were stained with the LIVE/DEAD® fixable yellow dye (Invitrogen, Eugene, Oreg.). The monoclonal antibodies fluorochome-conjugated to human cytokines used are: APC-H7 to CD3 (clone SK7); BD Horizon V450 to CD4 (clone RPA-T4); Qdot to CD8 (clone 3B5); PE-cy7 to IFN-γ (clone 4S.B3); APC to IL-2 (clone MQ1-17H12) PerCP to perforin (clone B-D48); Alexa F1.700 to granzyme-B (clone GB11) and PE to granzyme-A (clone CB9). The flow cytometry data is collected using BD LSRII and analyzed with the FACS DIVA software.
(§7) The ICS analysis (Horton et al. (2007)) involved stimulating 0.5-1.0×10^6 freshly isolated PBMC for 6 h with the same peptide stimulant and culture conditions as the proliferation analysis in the presence of 1 μg/mL of Golgi transport inhibitor and monensin followed by labeling with LIVE/DEAD fixable yellow dye and then treatment with anti-CD16/CD32 antibody and T-cell phenotypic antibodies. The cells were subsequently fixed and permeabilized with Cytofix/Cytoperm solution (BD Biosciences) before reaction with anti-cytotoxin antibodies. The antibodies consisted of anti-CD3 APC-H7, anti-CD4 BD Horizon V450, and anti-CD8 FITC followed by anti-GrzB Alexa 700 and anti-GrzA PE (all from BD Biosciences), and anti-perforin PerCP (Abcam, Boston, Mass.).
as §3, §4, §5

[4] = tested on: CD4+ T cells from HIV+ subjects; assay: Intracellular cytotoxin staining (ICS), CD4+ T cells from HIV+ subjects; set-up: key to CD4^+ T-cell cytotoxins (4C): positive (+); negative (−) response; inhibitory (↓); not done (n); details: HIV^+ subjects compared to HIV^− control group
Procedure: as §6, §7, §3, §4, §5

[5] = tested on: CD4+ or CD8+ T cells from HIV+ subjects; assay: Intracellular cytotoxin staining (ICS), CD4+ or CD8+ T cells from HIV+ responders
Procedure: Briefly, 1×10^6PBMCs (freshly isolated) are stimulated with 20 μg of peptides for 6 hours in a total volume of 200 μL in a 96-well plate in presence of Golgi transport inhibitor (37° C., 5% CO2). […] Cells were stained with the LIVE/DEAD® fixable yellow dye (Invitrogen, Eugene, Oreg.). […] The flow cytometry data is collected using BD LSRII and analyzed with the FACS DIVA software.
The cells were subsequently fixed and permeabilized with Cytofix/Cytoperm solution (BD Biosciences) before reaction with anti-cytotoxin antibodies. The antibodies consisted of anti-CD3 APC-H7, anti-CD4 BD Horizon V450, and anti-CD8 FITC followed by anti-GrzB Alexa 700 and anti-GrzA PE (all from BD Biosciences), and anti-perforin PerCP (Abcam, Boston, Mass.).
as §3
Flow cytometry (FACS) for measuring CFSE-proliferation and intracellular cytokine staining (ICS).
Both analyses were performed with BD LSRII and […]™ Software (BD Biosciences), using a positive threshold of >1% CFSE^low for CFSE-proliferation except for ICS studies with threshold of >0.1% T cells expressing cytotoxin.

[6] = tested on: CD3+CD4+ T cells from HIV+ subjects; assay: CFSE-proliferation, CD3+CD4+ T cells from HIV+ subjects
Procedure: as §1, §2, §3, §4, §5

[7] = responders to Fp9 or Fp14 peptide pools
[8] = average positive values, responders to Fp9 or Fp14 peptide pools
[9] = responders/tested, small 9-13mer peptides, yr 4, responders to Fp9 or Fp14 pool via both proliferation and IFNγ
[10] = small 9-13mer peptides, yr 4, responders to Fp9 or Fp14 pool via both proliferation and IFNγ

## KKKDSTKWRKLVDFR [H3-3]
[1]; three H3 responders tested on or after the second year
  IFNγ response of H3 responders retested: 0/3

## FIV 3-3 (KR9) (KWRMLIDFR)
[2]
  CD8^+ T Proliferation (positive/total): 0/6
[1]
  IFNγ (positive/total): 1/9

## FIV F3-3m6 (KKKSTKWRMLIDFRV)
[2]
  CD8^+ T Proliferation (positive/total): 2/5
[1]
  IFNγ (positive/total): 7/9

## FIV F3-3m4 (KKKSTKWRKLIDFRV)
[2]
  CD8^+ T Proliferation (positive/total): 0/5
[1]
  IFNγ (positive/total): 0/9

## FIV F3-3m2 (KKKDSGKWRMLIDFRV)
[2]
  CD8^+ T Proliferation (positive/total): 2/5
[1]
  IFNγ (positive/total): 7/9

## FIV F3-3m3 (KKKSGKWRMLVDFRV)
[2]
  CD8^+ T Proliferation (positive/total): 0/5
[1]
  IFNγ (positive/total): 0/9

## FIV F3-3m5 (KKKSGKWRKLIDFRV)
[2]
  CD8^+ T Proliferation (positive/total): 0/5
[1]
  IFNγ (positive/total): 0/9

## FIV F3-3 (KV15) (KKKSGKWRMLIDFRV)
[2]
  CD8^+ T Proliferation (positive/total): 6/9
[1]
  IFNγ (positive/total): 13/13

## FIV 3-3 (WV9) (WRMLIDFRV)
[2]
  CD8^+ T Proliferation (positive/total): 1/6
[1]
  IFNγ (positive/total): 8/11

## FIV F3-3m1 (KKKDSGKWRMLIDFR)
[2]
  CD8^+ T Proliferation (positive/total): 1/5
[1]
  IFNγ (positive/total): 0/9

## FIV F3-3 (KKKSGKWRMLIDFRV)
[2]
  CD8^+ T Proliferation (positive/total): 6/9
[1]
  IFNγ (positive/total): 13/13

## ASQEVKNWMTETLLV [Hp15-2]
[3]
  CD8^+ T-cell cytotoxins (8C): +
[4]
  CD4^+ T-cell cytotoxins (4C): +

## AEVKLYLKQSLSIA [Fp14-3]
[3]
  cytotoxin expression / CTL-associated activity in CD8+ T cells (in words): highest frequency and levels
  CD8^+ T-cell cytotoxins (8C): +
[3]; five HIV+ subjects, individual 13-15mer peptides
  HIV+ subjects whose CD8+ T cells responded with one or more cytotoxins: five
[4]
  CD4^+ T-cell cytotoxins (4C): +

## EQNTAEVKLYLKQSL [Fp14-2]
[3]
  CD8^+ T-cell cytotoxins (8C): +
[4]
  CD4^+ T-cell cytotoxins (4C): +

## CAEV & MVV (KKKSGKWRMLIDFRE)
[2]
  CD8^+ T Proliferation (positive/total): 0/5
[1]
  IFNγ (positive/total): 1/9

## KLYLKQSLSI [Fp14-3/4f]
[5]; p24 peptides
  cytotoxin and CD107a expression in CD4+ and CD8+ T cells (in words): high frequency of cytotoxin expression; also recorded: high cytotoxin and CD107a expression
[5]; [7]
  Cytotoxins: High Cytotoxins (The cytotoxin result is considered high when four or five subjects express one or more cytotoxins in the CD8^+ T cells)
[2]; [8]
  (magnitude) CD8 Proliferation: high (high when >30 CSFE)
[2]; p24 pools and peptides
  CD8+ T-cell proliferation response of HIV+ subjects (in words): high
[2]; [7]
  Responder Frequency in %, CD8 Proliferation: 100%
[2]; [9]
  CD8^+ T-cell Responder Frequency: 10/10
[2]; [10]
  CD8^+ T-cell Responder Frequency (%): (100) ^d %
[6]
  CD4+ T-cell proliferation response of HIV+ subjects (in words): high
[6]; [8]
  (magnitude) CD4 Proliferation: low (The average positive values are considered low when the frequency of response is <15% CFSE)
[6]; [7]
  Responder Frequency in %, CD4 Proliferation: 60%
[6]; [9]
  CD4^+ T-cell Responder Frequency: 6/10
[6]; [10]
  CD4^+ T-cell Responder Frequency (%): (60) ^d %
[1]; [8]
  (magnitude) IFNγ: low (low when the frequency of response is <15% CFSE or <125 SFU)
[1]; p24 pools and peptides
  IFNγ response of HIV+ subjects (in words): low
[1]; [7]
  Responder Frequency in %, IFNγ: 40%
